Reference: publication PMC4703104 (Journal of medicinal chemistry, 2015)

How the values were obtained:
[1] = system: mouse; details: mouse models ref 5; cited from earlier work
[2] = system: rat; details: rat models ref 5; cited from earlier work
[3] = molecular target: T1, human δ receptor (hDOPr) (Homo sapiens, UniProt P41143); experiment: cell-based
[4] = molecular target: T1, human δ receptor (hDOPr); experiment: [3H]diprenorphine radioligand; type: binding
[5] = Nephelometry; type: physicochemical
[6] = molecular target: δ receptor (Homo sapiens, UniProt P41143); experiment: PathHunter β-arrestin recruitment assay in CHO-OPRD1 cells; type: cell-based
Chain of δ receptor (P41143 whole entry): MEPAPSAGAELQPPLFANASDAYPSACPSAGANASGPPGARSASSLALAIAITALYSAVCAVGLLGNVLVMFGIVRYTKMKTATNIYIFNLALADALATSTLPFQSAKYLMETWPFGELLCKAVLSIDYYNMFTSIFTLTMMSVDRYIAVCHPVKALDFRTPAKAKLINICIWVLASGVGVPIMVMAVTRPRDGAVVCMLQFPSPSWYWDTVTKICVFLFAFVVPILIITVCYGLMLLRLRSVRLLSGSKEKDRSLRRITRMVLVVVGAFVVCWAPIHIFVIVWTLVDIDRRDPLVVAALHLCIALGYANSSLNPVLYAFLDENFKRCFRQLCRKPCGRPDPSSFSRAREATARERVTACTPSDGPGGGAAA

[7] = HBSS + 25 mM HEPES and 10% FBS (β-arrestin assay buffer)
[8] = phosphate buffered saline solution, data not shown

T1 sequence (P41143 whole entry): as above

CCN(CC)C(=O)c1ccc(C2=CC3(CCNCC3)Oc3cccc(O)c32)cc1 [ADL5859, N,N-diethyl-4-(5-hydroxyspiro-[chromene-2,4′-piperidine]-4-yl)benzamide]
seizures [1]: no seizures | seizures [2]: no seizures

CN1CC[C@]2(c3cccc(O)c3)Cc3nc4ccccc4cc3C[C@H]2C1 [TAN67]
Kd [3]: 3.98 nM | Ki [4]: 10 nM | affinity ratio (vehicle Ki)/(2 Ki) ([4]; effect of 2 (10 μM) on the orthosteric agonist's Ki): 3

Cc1ccccc1COc1ccc(C2C3=C(CC(C)(C)CC3=O)OC3=C2C(=O)CC(C)(C)C3)cc1 [compound 2, 3,3,6,6-tetramethyl-9-(4-((2-methylbenzyl)oxy)phenyl)-3,4,5,6,7,9-hexahydro-1H-xanthene-1,8(2H)-dione]
concentrations showing particulate matter [5, 7]: above 3 μM | concentrations showing particulate matter [5, 8]: above 1 μM

CC1(C)CC(=O)C2=C(C1)OC1=C(C(=O)CC(C)(C)C1)C2c1ccc(OCc2ccc(F)cc2)cc1 [compound 7]
PAM activity at the δ receptor ([6]; PAM mode, EC20 of leu-enkephalin): robust potentiation

CC1(C)CC(=O)C2=C(C1)OC1=C(C(=O)CC(C)(C)C1)C2c1ccc(OCc2ccccc2Cl)cc1 [compound 8]
selectivity μ/δ ([6]; potency ratio of PAM mode EC50 values, β-arrestin recruitment): >33

CC1(C)CC(=O)C2=C(C1)OC1=C(C(=O)CC(C)(C)C1)C2c1ccc(OCc2ccccc2Br)cc1 [compound 10, 9-(4-((2-Bromobenzyl)oxy)phenyl)-3,3,6,6-tetramethyl-3,4,5,6,7,9-hexahydro-1H-xanthene-1,8(2H)-dione]
concentrations showing particulate matter [5, 7]: above 3 μM | concentrations showing particulate matter [5, 8]: above 1 μM
